Data on twelve compounds can be found in PMC7113690 (Antiviral Research, 2015).

Structures can show the parent of a compound that is named as a salt. Where two headings read alike, the source gives them in different places. Where only a bound is given, the exact number is not on record here.

Usually EC50 stands for the concentration that produces a half-maximal response. As usually defined, the inhibition is how much of the control response was suppressed. As usually defined, the CC50 is the concentration giving 50% cytotoxicity. A word on the EC90: it is the concentration at which the effect reaches the 90% level.

In data set [1] the test system is EBOV (Zaire strain) GP/HIV core pseudovirus (pEBOV). In words: organism not typed. The format is cell-based, Ebola virus (Zaire strain). The conditions noted are these: for EC50: read-out: EC50 pEBOV.
Data set [2] relates to VSV G/HIV core pseudovirus (pVSV). The experiment in a line: organism not typed. The data set is classed as cell-based. The conditions noted are these: for EC50: read-out: EC50 pVSV.
The test system of data set [3] is Ebola virus (Zaire strain) minigenome. The format is cell-based.
Data set [4] concerns EBOV. The conditions noted are these: mouse, in vivo, 14 mg/kg; cited from earlier work.
For data set [5], the system named is Vero cells.
For data set [6] the following is noted: cited from earlier work.
Data set [7] has as its system poliovirus 1 (PV1, strain Sabin). The format is cell-based.
Data set [8] concerns enterovirus 71 (EV-A71, strain G082). The format is cell-based.
Data set [9] deals with bacteremia. The conditions noted are these: in vivo, 40 mg/kg; cited from earlier work.
Data set [10] relates to Coxsackievirus A16 (CV-A16, strain SHZH05-1). The data set is classed as cell-based.
Data set [11] deals with eGFP-EBOV. The conditions noted are these: cited from earlier work.
Data set [12] has as its system EBOV pseudovirus (pEBOV) entry into Vero cells. The data set is classed as cell-based, Ebola virus (Zaire strain).
The conditions of data set [13]: in vivo; cited from earlier work.

`CCN(CC)CCOCCOC(=O)C(CC)(CC)c1ccccc1` [Oxeladin]: the EC50 in [1] (Vero, 72 h) was 8.06 µM; in [2] (Vero, 72 h) it was 38.1 µM.
On the same counts, the results for `C[C@H](N)[C@H](O)c1ccc(O)c(O)c1` [Levonordefrin] are greater than 50 µM and greater than 50 µM.
As to `CN[C@H](CC(C)C)C(=O)N[C@H]1C(=O)N[C@@H](CC(N)=O)C(=O)N[C@H]2C(=O)N[C@H]3C(=O)N[C@H](C(=O)N[C@H](C(=O)O)c4cc(O)cc(O)c4-c4cc3ccc4O)[C@H](O)c3ccc(c(Cl)c3)Oc3cc2cc(c3O[C@@H]2O[C@H](CO)[C@@H](O)[C@H](O)[C@H]2O[C@H]2C[C@](C)(N)[C@H](O)[C@H](C)O2)Oc2ccc(cc2Cl)[C@H]1O` [vancomycin], the inhibition at 125 µM in data set [1] (Vero, read-out: inhibition of pEBOV) was 24.7%.
Take `CC(C(=O)O)c1ccc(N2Cc3ccccc3C2=O)cc1` (centres unmarked) [Indoprofen]: the EC50 worked out at 9.37 µM in [1] (Vero, 72 h) and 8.51 µM in data set [2] (Vero, 72 h).
`O=C(OCC(O)CO)c1ccccc1Nc1ccnc2cc(Cl)ccc12` (centres unmarked) [Glafenine]: the half-maximal effective concentration (EC50) worked out at 11.1 µM in data set [1] (Vero, 72 h) and 10.9 µM in data set [2] (Vero, 72 h).
Take `CN(C)CCOc1ccc(/C(=C(/CCCl)c2ccccc2)c2ccccc2)cc1` [Toremiphene]: the half-maximal effective concentration (EC50) in data set [1] (Vero, 72 h) turned out to be 0.38 µM; in [2] (Vero, 72 h), 7.53 µM.
Take Teicoplanin: the “inhibition of EBOV minigenome replication” value in data set [3] is recorded as “did not inhibit”. Further, the “protection of EBOV-infected mice” value in data set [4] is “no protection was observed”. Besides, in data set [5], the CC50 is greater than 125 µM and the cytotoxicity result is given as “without cytotoxicity”. In data set [6], the “bound to plasma protein” value was 90%. In addition, the “inhibition of PV1” value in data set [7] was “no inhibition was observed”. Further, in data set [8], the “inhibition of EV-A71” value is listed as “no inhibition was observed”. For the same compound, the “safety and decrease of bacteremia” value in data set [9] was “safe and effectively in decreasing bacteremia”. Further, the “inhibition of CV-A16” value in data set [10] is listed as “no inhibition was observed”. In addition, in data set [11], the “activity against eGFP-EBOV in vitro” value was “active”. The “inhibition of pEBOV infection (in words)” value in data set [1] (125 µM) is recorded as “completely inhibited”. Further, the EC50 in data set [1] came out at 2.38 µM. Also, the EC90 in [1] (read-out: EC90 pEBOV) was determined as 9.36 µM. Further, in data set [12], the “inhibition of pEBOV infection, during infection” value is on record as “efficiently inhibited infection”; the “inhibition of pEBOV infection, post-attachment” value was “no inhibition was detected”; the “inhibition of pEBOV infection, pre-attachment” value is reported as “efficiently inhibited infection”. Further, in data set [13], the “Cmin at which toxicity is seen” value is no less than 60000 ng/mL and the “trough plasma concentration (Cmin)” value was 20000 to 60000 ng/mL. In addition, the “inhibition of pVSV infection” value in data set [2] (125 µM) was “less than 20%”. Also, the EC50 in data set [2] is greater than 125 µM.
With `C[C@@H]1CC[C@H]2[C@@H](C)C(=O)O[C@@H]3O[C@@]4(C)CC[C@@H]1[C@]32OO4` [Artemisinin], the half-maximal effective concentration (EC50) in data set [1] (Vero, 72 h) is 74.1 µM; in data set [2] (Vero, 72 h), 162 µM.
Regarding `Oc1c(I)cc(I)c2cccnc12` [Iodoquinol], the concentration giving a half-maximal response (EC50) in [1] (Vero, 72 h) stood at 3.5 µM; in data set [2] (Vero, 72 h) it was 3.45 µM.
The corresponding values for `CN1CCC(=C2c3ccccc3Sc3ccccc32)CC1` [Pimethixene maleate] are 10.7 µM and 14.8 µM.
The corresponding values for `Fc1ccc([C@@H]2CCNC[C@H]2COc2ccc3c(c2)OCO3)cc1` [Paroxetine] are 2.4 µM and 7.39 µM.
Turning to `O=C1C=C2C=C[C@@H]3C[C@@]2(O1)[C@H]1CCCCN31` [Securinine], the EC50 was 27.1 µM in [1] (Vero, 72 h) and 26.6 µM in data set [2] (Vero, 72 h).
